EP4603105A1, “PHARMACEUTICAL COMPOSITION CONTAINING CYCLIC COMPOUND HAVING SELECTIVE KRAS INHIBITORY EFFECT AGAINST HRAS AND NRAS” (CHUGAI SEIYAKU KABUSHIKI KAISHA, priority 2022, dated 2024)

Columns and labels:
[1] = molecular target: GDP-bound NRAS wild-type protein (Homo sapiens, UniProt P01111); assay: Binding to NRAS by surface plasmon resonance (SPR), KD and KD ratio to KRAS
Outline: (§1)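 Running buffer contained 10 µM GDP and 10 mM MgCl2 to keep RAS in the GDP state, with 4% DMSO at pH 7.4. Compounds were flowed at 100 µL/min in 75 s steps of rising concentration over captured biotin-Avi RAS at 30°C. Sensorgrams were fitted 1:1 for KD.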

[2] = molecular target: HRAS wild-type protein (Homo sapiens, UniProt P01112); assay: Binding to HRAS by surface plasmon resonance (SPR), KD and KD ratio to KRAS
Outline: as §1

[3] = tested on: human lung cancer strain NCI-H441; assay type: cell-based
Outline: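 Step one: dispense the test compound in serial DMSO dilutions. Step three: add the reagent and measure […].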

[4] = ratio of KD value for GDP-bound NRAS wild-type protein to KD value for KRAS (SPR)
[5] = ratio of KD value for HRAS wild-type protein to KD value for KRAS (SPR)
[6] = ratio of KD for GDP-bound NRAS wild-type protein to KD for KRAS
[7] = ratio of KD for HRAS wild-type protein to KD for KRAS

GDP-bound NRAS wild-type protein, sequence (P01111 whole entry): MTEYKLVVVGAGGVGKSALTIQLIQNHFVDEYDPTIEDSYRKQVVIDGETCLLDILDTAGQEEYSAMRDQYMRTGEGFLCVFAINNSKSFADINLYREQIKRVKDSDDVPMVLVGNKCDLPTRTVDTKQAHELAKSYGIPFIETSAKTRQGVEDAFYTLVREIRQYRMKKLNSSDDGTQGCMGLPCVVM
HRAS wild-type protein, sequence (P01112 whole entry): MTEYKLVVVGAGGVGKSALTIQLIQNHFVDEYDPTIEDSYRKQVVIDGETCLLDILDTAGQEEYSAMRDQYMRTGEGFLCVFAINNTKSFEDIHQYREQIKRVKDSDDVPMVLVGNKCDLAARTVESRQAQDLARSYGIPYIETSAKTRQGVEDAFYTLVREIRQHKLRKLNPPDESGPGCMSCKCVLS

IC50 [3]	SMILES	NRAS /KRAS [1, 6]	HRAS /KRAS [2, 7]	further results
21.8 nM	CC[C@H](C)[C@@H]1NC(=O)[C@H](CC(C)C)N(C)C(=O)C[C@@H](C(=O)N2CCOCC2)N(C)C(=O)[C@H](C2CCCC2)N(C)C(=O)C2(CCC2)NC(=O)[C@@H]2[C@@H](OC)CCN2C(=O)[C@H](CCc2cc(F)c(C(F)(F)F)c(F)c2)NC(=O)CN(C)C(=O)[C@H](Cc2ccc(C(F)(F)F)cc2)N2CCCC[C@@H](C2=O)N(C)C(=O)CN(C)C1=O [PP1075]	B (a compound having 3 or more and less than 10 is denoted as B)	B (a compound having 3 or more and less than 10 is denoted as B)	–
17.6 nM	CC[C@H](C)[C@@H]1NC(=O)[C@H](CC(C)C)N(C)C(=O)C[C@@H](C(=O)N2CCOCC2)N(C)C(=O)[C@H](C2CCCC2)N(C)C(=O)C2(CCC2)NC(=O)[C@@H]2CC(F)(F)CN2C(=O)[C@H](CCc2cc(F)c(C(F)(F)F)c(F)c2)NC(=O)CN(C)C(=O)[C@H](Cc2ccc(C(F)(F)F)cc2)N2CCCCC[C@@H](C2=O)N(C)C(=O)CN(C)C1=O [PP0464]	–	–	NRAS /KRAS ([1]; ratio of the KD value with respect to GDP-bound NRAS wild-type protein to the KD value with respect to KRAS): B (a compound having 3 or more and less than 10 is denoted as B); HRAS /KRAS ([2]; ratio of the KD value with respect to HRAS wild-type protein to the KD value with respect to KRAS): B (a compound having 3 or more and less than 10 is denoted as B)
25.1 nM	CCC[C@H]1C(=O)N[C@@H](C2CCCC2)C(=O)N(C)CC(=O)N(C)[C@H]2C/C=C\CCN(C2=O)[C@@H](Cc2ccc(C(F)(F)F)cc2)C(=O)N(C)CC(=O)N[C@@H](CCc2ccc(C(F)(F)F)c(Cl)c2)C(=O)N2CC3(CC3)C[C@H]2C(=O)NC2(CC(C)(C)C2)C(=O)N(C)[C@@H](C2CCCC2)C(=O)N(C)[C@H](C(=O)N(C)C)CC(=O)N1C [PP2986]	AA (a compound having 20 or more is denoted as AA)	A (a compound having 10 or more and less than 20 is denoted as A)	–

The remaining lines, values behind:

SMILES	IC50 [3]	NRAS /KRAS [1, 6]	HRAS /KRAS [2, 7]	further results
CCO[C@@H]1C[C@H]2C(=O)NC3(CC(C)(C)C3)C(=O)N(C)[C@@H](C3CCCC3)C(=O)N3CCC[C@@H]3CC(=O)N(C)[C@@H](CC)C(=O)N[C@@H]([C@@H](C)CC)C(=O)N(C)CC(=O)N(C)[C@H]3C/C=C\CCN(C3=O)[C@@H](CC3CCCCC3)C(=O)N(C)CC(=O)N[C@@H](CCc3cc(F)c(C(F)(F)F)c(F)c3)C(=O)N2C1 [PP1620]	170 nM	–	–	NRAS /KRAS [1, 4]: B (a compound having 3 or more and less than 10 is denoted as B); HRAS /KRAS [2, 5]: B (a compound having 3 or more and less than 10 is denoted as B)
CCC[C@H]1C(=O)N[C@@H]([C@@H](C)CC)C(=O)N(C2CC2)CC(=O)N(C)[C@H]2C/C=C\CCN(C2=O)[C@@H](Cc2ccc(C)cc2)C(=O)N(C)CC(=O)N[C@@H](CCc2cc(F)c(Cl)c(OC)c2)C(=O)N2C[C@H](OCC)C[C@H]2C(=O)NC2(CC(C)(C)C2)C(=O)N(C)[C@@H](C2CCCC2)C(=O)N(C)[C@H](C(=O)N(C)C)CC(=O)N1C [PP2871]	28.4 nM	A (a compound having 10 or more and less than 20 is denoted as A)	A (a compound having 10 or more and less than 20 is denoted as A)	–
CCC[C@H]1C(=O)N[C@@H]([C@@H](C)CC)C(=O)N(C)CC(=O)N(C)[C@H]2C/C=C\CCN(C2=O)[C@@H](Cc2ccc(C)cc2)C(=O)N(C)CC(=O)N[C@@H](CCc2cc(F)c(C(F)(F)F)c(F)c2)C(=O)N2C[C@H](OCC)C[C@H]2C(=O)N(C)C2(CCC2)C(=O)N(C)[C@@H](C2CCCC2)C(=O)N(C)[C@H](C(=O)N(C)C)CC(=O)N1C [PP1793]	2.4 nM	–	–	NRAS /KRAS [1, 4]: A (a compound having 10 or more and less than 20 is denoted as A); HRAS /KRAS [2, 5]: B (a compound having 3 or more and less than 10 is denoted as B)
CCO[C@@H]1C[C@H]2C(=O)NC3(CCC3)C(=O)N(C)[C@@H](C3CCCC3)C(=O)N(C)[C@H](C(=O)N(C)CCOC)CC(=O)N(C)[C@@H](CC(C)C)C(=O)N[C@@H]([C@@H](C)CC)C(=O)N(C)CC(=O)N(C)[C@H]3C/C=C\CCN(C3=O)[C@@H](Cc3ccc(C(F)(F)F)cc3)C(=O)N(C)CC(=O)N[C@@H](CCc3ccc4sccc4c3)C(=O)N2C1 [PP1325]	42.7 nM	–	–	NRAS /KRAS ([1]; ratio of KD with respect to GDP-bound NRAS wild-type protein to KD with respect to KRAS): A (a compound having 10 or more and less than 20 is denoted as A); HRAS /KRAS ([2]; ratio of KD with respect to HRAS wild-type protein to KD with respect to KRAS): A (a compound having 10 or more and less than 20 is denoted as A)
